Experimental data reported in paper PMC5730575, “A Simple Platform for the Rapid Development of Antimicrobials” (Scientific Reports, 2017).

How the values were obtained:
S. epidermidis = assay: 100-peptide microarray binding of S. epidermidis; settings: S. epidermidis labeled with CTO and AF647, 106 CFU/mL
[1] = tested on: A/CA/7/2009 H1N1 pdm09 hemagglutination of turkey red blood cells; assay: Hemagglutination inhibition (HAI) assay; type: biochemical, influenza A/CA/07/2009 pdm09 H1N1; settings: peptides tested 50 µM to 1.76 µM, 2 fold dilutions; 1 HAU virus; 0.5% turkey RBC; non-inhibitors: even at 50 µM
A/CA/07/2009 pdm09 H1N1 = assay: 100-peptide microarray binding of pdm09 H1N1; parameters: species or system influenza A/CA/07/2009 pdm09 H1N1; settings: two color fluorescent labeling (AF555/AF647); six replicate spots per peptide; versus background in empty spots, p < 0.01
[2] = cited from earlier work

Substance: CSGAMHGPATTRPAIGRYPW [p52]
- binding of S. epidermidis on the peptide array (S. epidermidis): positives binders

Substance: CSGAVNYQEVFNKARMKKKR [p58]
- inhibition of hemagglutination by pdm09 of red blood cells (peptides) [1]: did not prevent hemagglutination
- binding of pdm09 H1N1 on the peptide array (A/CA/07/2009 pdm09 H1N1): bound

Substance: CSGEWRQQKMMPKSAPNKPQ [p94]
- binding of pdm09 H1N1 on the peptide array (A/CA/07/2009 pdm09 H1N1): did not

Substance: CSGFRKHPWKHPRHKFHKPW [p104]
- binding of S. epidermidis on the peptide array (S. epidermidis): positives binders

Substance: CSGFWPRKHPFRWKHPRPKH [p107]
- inhibition of hemagglutination by pdm09 of red blood cells (peptides) [1]: did not prevent hemagglutination
- binding of pdm09 H1N1 on the peptide array (A/CA/07/2009 pdm09 H1N1): bound

Substance: CSGHNIYAQYGYPYDHMYEG [p125]
- inhibition of hemagglutination by pdm09 of red blood cells (peptides) [1]: inhibited hemagglutination

Substance: CSGKSQEIGDPDDIWNQMKW [p149]
- inhibition of hemagglutination by pdm09 of red blood cells (peptides) [1]: inhibited hemagglutination

Substance: CSGKVHRWKYHSRQNYTYRP [p151]
- inhibition of hemagglutination by pdm09 of red blood cells (peptides) [1]: did not prevent hemagglutination
- binding of pdm09 H1N1 on the peptide array (A/CA/07/2009 pdm09 H1N1): bound

Substance: CSGNETAPDNTYRYKQSAQK [p174]
- inhibition of hemagglutination by pdm09 of red blood cells (peptides) [1]: did not prevent hemagglutination
- binding of pdm09 H1N1 on the peptide array (A/CA/07/2009 pdm09 H1N1): bound

Substance: CSGQFSAKKYWEIKPMDYWK [p204]
- inhibition of hemagglutination by pdm09 of red blood cells (peptides) [1]: did not prevent hemagglutination
- binding of pdm09 H1N1 on the peptide array (A/CA/07/2009 pdm09 H1N1): bound

Substance: CSGSFNQEYFPYPMIDYLKK [p227]
- inhibition of hemagglutination by pdm09 of red blood cells (peptides) [1]: inhibited hemagglutination

Substance: CSGYNWSRKKHKYYPRKIAY [p43]
- inhibition of hemagglutination by pdm09 of red blood cells (peptides) [1]: did not prevent hemagglutination
- binding of pdm09 H1N1 on the peptide array (A/CA/07/2009 pdm09 H1N1): bound

Substance: CSGYYDVHMGPMNDNHYFKK [p228]
- inhibition of hemagglutination by pdm09 of red blood cells (peptides) [1]: did not prevent hemagglutination
- binding of pdm09 H1N1 on the peptide array (A/CA/07/2009 pdm09 H1N1): bound

Substance: enfuvirtide
- elimination half-life [2]: 3.8 h
